Data on six compounds can be found in ChEMBL document CHEMBL1909046, “DrugMatrix in vitro pharmacology data”.

The target of series [1] is T1, Alpha-2A adrenergic receptor (Homo sapiens, UniProt P08913). Note: in other assays of this panel Not Active means under 50% inhibition at 10 µM.
T1 sequence (P08913 whole entry): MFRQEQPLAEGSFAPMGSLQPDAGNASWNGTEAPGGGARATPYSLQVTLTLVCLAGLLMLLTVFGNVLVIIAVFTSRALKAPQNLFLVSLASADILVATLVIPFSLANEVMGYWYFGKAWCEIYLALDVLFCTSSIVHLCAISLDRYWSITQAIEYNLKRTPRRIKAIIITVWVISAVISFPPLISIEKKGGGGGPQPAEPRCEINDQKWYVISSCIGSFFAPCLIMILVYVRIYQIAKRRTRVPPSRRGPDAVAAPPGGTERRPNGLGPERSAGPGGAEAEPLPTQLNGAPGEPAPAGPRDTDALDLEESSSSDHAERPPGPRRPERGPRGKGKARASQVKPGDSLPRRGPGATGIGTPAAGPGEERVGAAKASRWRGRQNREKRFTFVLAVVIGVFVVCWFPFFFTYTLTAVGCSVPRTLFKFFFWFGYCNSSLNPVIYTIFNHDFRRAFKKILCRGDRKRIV
It counts as cell membranes, Sf9, Membrane.

Series [2] has as its target 5-hydroxytryptamine receptor 6 (Homo sapiens, UniProt P50406). It counts as cell membranes, HeLa, Membrane. Note: in other assays of this panel Not Active means under 50% inhibition at 10 µM.
Series [3] is described as follows: DRUGMATRIX: Calcium Channel Type L, Phenylalkylamine radioligand binding (ligand: [3H] (-)-Desmethoxyverapamil (D-888)). In kind it is cell membranes, Rattus norvegicus, Wistar, Brain, Membrane. To be noted: Not Active = under 50% inhibition at 10 µM.
The target in another series is Melanocortin receptor 3 (Homo sapiens, UniProt P41968). It counts as cell membranes, Membrane. Conditions: hek293. Note: in other assays of this panel Not Active means under 50% inhibition at 10 µM.
Melanocortin receptor 3, sequence (P41968 whole entry): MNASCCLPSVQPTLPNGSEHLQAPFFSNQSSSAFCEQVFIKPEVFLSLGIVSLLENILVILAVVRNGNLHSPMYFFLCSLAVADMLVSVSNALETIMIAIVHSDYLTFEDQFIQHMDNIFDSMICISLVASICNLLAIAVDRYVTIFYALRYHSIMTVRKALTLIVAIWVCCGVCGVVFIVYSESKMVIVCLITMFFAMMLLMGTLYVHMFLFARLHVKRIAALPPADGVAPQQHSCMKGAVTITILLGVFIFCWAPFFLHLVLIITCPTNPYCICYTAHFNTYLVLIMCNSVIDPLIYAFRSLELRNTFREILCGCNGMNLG
Series [4] has as its target T2, C-X-C chemokine receptor type 1 (Homo sapiens, UniProt P25024). Note: in other assays of this panel Not Active means under 50% inhibition at 10 µM.
T2 sequence (P25024 whole entry): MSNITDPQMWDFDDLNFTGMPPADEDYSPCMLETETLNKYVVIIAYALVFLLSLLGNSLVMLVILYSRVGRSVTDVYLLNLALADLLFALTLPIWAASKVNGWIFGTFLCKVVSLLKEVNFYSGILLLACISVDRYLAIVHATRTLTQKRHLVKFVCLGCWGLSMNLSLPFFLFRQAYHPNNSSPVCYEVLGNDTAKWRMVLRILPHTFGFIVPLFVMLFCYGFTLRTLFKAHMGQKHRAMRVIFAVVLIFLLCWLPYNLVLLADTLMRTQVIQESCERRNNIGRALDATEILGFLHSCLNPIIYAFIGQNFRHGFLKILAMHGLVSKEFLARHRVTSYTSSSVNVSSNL

A further series deals with Cytochrome P450 2C9 (Homo sapiens, UniProt P11712). To be noted: bti-tn-5b1-4.
Cytochrome P450 2C9, sequence (P11712 whole entry): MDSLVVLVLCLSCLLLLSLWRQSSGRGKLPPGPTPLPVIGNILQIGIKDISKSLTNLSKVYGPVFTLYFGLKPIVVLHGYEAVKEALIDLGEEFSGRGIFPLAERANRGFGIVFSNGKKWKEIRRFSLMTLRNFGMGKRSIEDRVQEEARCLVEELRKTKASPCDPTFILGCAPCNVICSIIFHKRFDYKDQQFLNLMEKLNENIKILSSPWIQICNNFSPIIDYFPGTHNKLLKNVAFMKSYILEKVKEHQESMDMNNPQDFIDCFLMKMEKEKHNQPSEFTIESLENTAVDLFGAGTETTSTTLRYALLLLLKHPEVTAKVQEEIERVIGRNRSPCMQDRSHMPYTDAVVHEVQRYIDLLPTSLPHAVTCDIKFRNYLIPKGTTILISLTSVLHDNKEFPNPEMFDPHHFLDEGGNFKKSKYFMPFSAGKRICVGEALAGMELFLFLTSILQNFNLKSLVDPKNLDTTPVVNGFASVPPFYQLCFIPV
For series [5], the target named is Protein phosphatase 3 catalytic subunit alpha (Homo sapiens, UniProt Q08209). Details: species or system Escherichia coli.
Series [6] can be described thus: DRUGMATRIX: Serotonin (5-Hydroxytryptamine) 5-HT3 radioligand binding (ligand: [3H] GR-65630). It counts as cell membranes, Membrane. Conditions: hek293; Not Active = under 50% inhibition at 10 µM.
A short description of series [7]: DRUGMATRIX: Phorbol Ester radioligand binding (ligand: [3H] PDBu). Conditions: Not Active = under 50% inhibition at 10 µM. In kind it is cell membranes, Mus musculus, ICR, Brain, Membrane.
Another series concerns the target Melanocortin receptor 5 (Homo sapiens, UniProt P33032). In kind it is cell membranes, HEK293, Membrane. Conditions: hek293. Note: in other assays of this panel Not Active means under 50% inhibition at 10 µM.
Series [8] concerns the target T3, Polyunsaturated fatty acid lipoxygenase ALOX15 (Oryctolagus cuniculus, UniProt P12530).
T3 sequence (P12530 whole entry): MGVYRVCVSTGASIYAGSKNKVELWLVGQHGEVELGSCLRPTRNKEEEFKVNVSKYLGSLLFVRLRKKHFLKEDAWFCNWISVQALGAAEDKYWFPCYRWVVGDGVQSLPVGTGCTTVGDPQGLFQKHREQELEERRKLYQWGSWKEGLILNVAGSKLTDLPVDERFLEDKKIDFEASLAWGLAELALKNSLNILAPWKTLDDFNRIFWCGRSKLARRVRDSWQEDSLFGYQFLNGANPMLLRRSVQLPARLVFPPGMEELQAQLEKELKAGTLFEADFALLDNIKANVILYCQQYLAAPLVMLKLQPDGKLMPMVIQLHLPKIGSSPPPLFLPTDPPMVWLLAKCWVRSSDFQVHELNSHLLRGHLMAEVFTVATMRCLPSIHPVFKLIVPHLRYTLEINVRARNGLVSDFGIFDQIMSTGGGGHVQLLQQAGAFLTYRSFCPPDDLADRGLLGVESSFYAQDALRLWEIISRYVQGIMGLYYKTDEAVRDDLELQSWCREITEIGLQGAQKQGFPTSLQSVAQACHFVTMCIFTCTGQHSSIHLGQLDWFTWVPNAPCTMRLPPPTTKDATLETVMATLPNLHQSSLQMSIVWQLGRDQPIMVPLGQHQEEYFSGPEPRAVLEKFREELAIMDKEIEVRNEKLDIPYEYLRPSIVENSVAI
Nature of the series: biochemical. In kind it is tissue-based, Reticulocytes. Conditions: reticulocytes.

In series [9] the target is C-C chemokine receptor type 5 (Homo sapiens, UniProt P51681). It counts as cell membranes, Membrane. To be noted: hek293. Note: in other assays of this panel Not Active means under 50% inhibition at 10 µM.
C-C chemokine receptor type 5, sequence (P51681 whole entry): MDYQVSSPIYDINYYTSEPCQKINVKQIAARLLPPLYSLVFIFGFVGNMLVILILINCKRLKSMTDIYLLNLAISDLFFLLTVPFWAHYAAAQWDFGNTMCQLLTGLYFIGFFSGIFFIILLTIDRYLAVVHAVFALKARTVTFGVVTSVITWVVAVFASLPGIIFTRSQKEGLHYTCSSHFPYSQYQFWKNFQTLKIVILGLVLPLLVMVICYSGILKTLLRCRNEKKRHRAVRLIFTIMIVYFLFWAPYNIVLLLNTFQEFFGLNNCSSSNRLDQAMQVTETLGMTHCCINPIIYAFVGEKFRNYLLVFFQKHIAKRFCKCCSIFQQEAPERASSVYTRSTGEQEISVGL
The target of another series is T4, Estrogen receptor (Homo sapiens, UniProt P03372). Note: in other assays of this panel Not Active means under 50% inhibition at 10 µM.
T4 sequence (P03372 whole entry): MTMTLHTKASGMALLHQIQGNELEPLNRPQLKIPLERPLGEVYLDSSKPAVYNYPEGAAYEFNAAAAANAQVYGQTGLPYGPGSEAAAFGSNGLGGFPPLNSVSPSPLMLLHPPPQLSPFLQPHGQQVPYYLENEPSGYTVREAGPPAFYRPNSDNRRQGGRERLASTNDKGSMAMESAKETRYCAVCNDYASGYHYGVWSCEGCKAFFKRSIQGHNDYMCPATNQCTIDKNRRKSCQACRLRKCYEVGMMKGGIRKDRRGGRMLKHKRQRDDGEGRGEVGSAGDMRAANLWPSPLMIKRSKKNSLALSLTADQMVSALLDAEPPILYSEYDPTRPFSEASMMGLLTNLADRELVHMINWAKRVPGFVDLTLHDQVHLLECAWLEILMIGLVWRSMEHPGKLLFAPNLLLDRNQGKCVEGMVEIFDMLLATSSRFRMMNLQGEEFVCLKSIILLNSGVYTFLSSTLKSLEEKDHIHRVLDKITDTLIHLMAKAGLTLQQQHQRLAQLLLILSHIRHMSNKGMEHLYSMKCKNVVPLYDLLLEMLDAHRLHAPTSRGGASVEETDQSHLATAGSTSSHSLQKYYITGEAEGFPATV
Conditions: sf9.

Series [10] concerns the target Tyrosine-protein kinase Lck (Homo sapiens, UniProt P06239). Nature of the series: DRUGMATRIX: Protein Tyrosine Kinase, LCK enzyme inhibition (substrate: Poly(Glu:Tyr)). It counts as cell-based, Insect cells. To be noted: Not Active = under 50% inhibition at 10 µM.

5-hydroxytryptamine receptor 6, sequence (P50406 whole entry): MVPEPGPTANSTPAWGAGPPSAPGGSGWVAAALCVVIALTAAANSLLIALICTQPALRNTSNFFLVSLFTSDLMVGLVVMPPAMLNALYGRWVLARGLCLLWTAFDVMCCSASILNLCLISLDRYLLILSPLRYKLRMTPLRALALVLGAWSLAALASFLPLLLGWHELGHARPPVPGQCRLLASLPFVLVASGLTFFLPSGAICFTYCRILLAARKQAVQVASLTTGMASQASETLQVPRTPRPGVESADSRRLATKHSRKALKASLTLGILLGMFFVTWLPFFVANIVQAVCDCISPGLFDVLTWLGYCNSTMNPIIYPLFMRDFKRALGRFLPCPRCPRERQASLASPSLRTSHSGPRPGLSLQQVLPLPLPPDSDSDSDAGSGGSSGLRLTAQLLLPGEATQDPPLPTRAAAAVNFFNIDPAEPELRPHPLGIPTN
Melanocortin receptor 5, sequence (P33032 whole entry): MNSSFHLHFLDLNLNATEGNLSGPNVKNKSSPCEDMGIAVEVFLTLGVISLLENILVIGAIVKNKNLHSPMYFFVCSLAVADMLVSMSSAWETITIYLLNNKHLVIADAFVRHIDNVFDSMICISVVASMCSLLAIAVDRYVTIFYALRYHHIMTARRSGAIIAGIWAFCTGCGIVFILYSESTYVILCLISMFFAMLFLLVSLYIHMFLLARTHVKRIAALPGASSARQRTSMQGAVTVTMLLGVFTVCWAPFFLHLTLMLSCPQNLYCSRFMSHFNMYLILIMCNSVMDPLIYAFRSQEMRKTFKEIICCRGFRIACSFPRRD
Tyrosine-protein kinase Lck, sequence (P06239 whole entry): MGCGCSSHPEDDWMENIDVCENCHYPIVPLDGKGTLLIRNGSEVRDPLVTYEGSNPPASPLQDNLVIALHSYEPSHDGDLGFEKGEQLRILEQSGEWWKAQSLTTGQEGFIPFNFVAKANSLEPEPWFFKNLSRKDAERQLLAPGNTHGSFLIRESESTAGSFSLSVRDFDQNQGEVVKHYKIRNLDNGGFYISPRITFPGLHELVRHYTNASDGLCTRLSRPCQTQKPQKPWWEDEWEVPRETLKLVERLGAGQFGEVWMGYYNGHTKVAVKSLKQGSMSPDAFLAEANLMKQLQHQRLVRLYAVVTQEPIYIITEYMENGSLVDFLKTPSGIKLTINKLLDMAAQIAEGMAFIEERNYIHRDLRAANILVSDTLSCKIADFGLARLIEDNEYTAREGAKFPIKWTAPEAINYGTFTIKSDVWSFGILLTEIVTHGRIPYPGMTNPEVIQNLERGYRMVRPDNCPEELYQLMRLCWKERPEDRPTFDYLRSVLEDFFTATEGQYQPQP

Take `CN1C[C@H](C(=O)N[C@]2(C)O[C@@]3(O)[C@@H]4CCCN4C(=O)[C@H](Cc4ccccc4)N3C2=O)C=C2c3cccc4[nH]cc(c34)C[C@H]21` [ERGOTAMINE]: the half-inhibitory concentration (IC50) in [1] (read-out: IC50) is 2.12 nM; in [2] (read-out: IC50) it was 2.04 nM; in [3] it was “Not Active”; against Melanocortin receptor 3, “Not Active”; in series [4], “Not Active”; against Cytochrome P450 2C9, “Not Active”. Moreover, the IC50 entry (in series [5]; in [6]; in series [7]; at Melanocortin receptor 5; in series [8]; in series [9]) was “Not Active” in each case. In addition, the IC50 result is “Not Active” on Estrogen receptor and 6500 nM in series [10] (read-out: IC50). In addition, the inhibitory constant (Ki) is 0.796 nM in series [1] (read-out: Ki); 0.948 nM in [2] (read-out: Ki); “Not Active” in series [3]; “Not Active” at Cytochrome P450 2C9; “Not Active” in [6]; “Not Active” in series [7].
Turning to `CCc1cccc2c3c([nH]c12)C(CC)(CC(=O)O)OCC3` (stereo not given) [ETODOLAC], the IC50 entry (in [1] (sf9); in series [2] (hela); in series [3]; at Melanocortin receptor 3; in series [4]; against Cytochrome P450 2C9) was “Not Active” each time. Besides, the IC50 entry (in series [5]; in series [6]; in series [7]; at Melanocortin receptor 5; in series [8]; in series [9]) was “Not Active” in each case. In addition, the IC50 entry (at Estrogen receptor; in [10] (insect cells)) was “Not Active” throughout. Further, the Ki result (in series [3]; on Cytochrome P450 2C9; in [6]; in [7]) was “Not Active” in each case.
Regarding `Cc1c(-c2ccccc2)oc2c(C(=O)OCCN3CCCCC3)cccc2c1=O` [FLAVOXATE], the IC50 result (in series [1] (sf9); in series [2] (hela); in series [3]; against Melanocortin receptor 3; in series [4]; on Cytochrome P450 2C9) was “Not Active” each time. In addition, the IC50 result (in series [5]; in [6]; in series [7]; on Melanocortin receptor 5; in series [8]; in series [9]) was “Not Active” throughout. The IC50 result (against Estrogen receptor; in series [10] (insect cells)) was “Not Active” throughout. Besides, the Ki entry (in series [3]; on Cytochrome P450 2C9; in series [6]; in [7]) was “Not Active” each time.
In the case of `Nc1nc(=O)[nH]cc1F` [FLUCYTOSINE], the IC50 result (in series [1] (sf9); in series [2] (hela); in series [3]; against Melanocortin receptor 3; in series [4]; on Cytochrome P450 2C9) was “Not Active” in each case. For the same compound, the half-inhibitory concentration (IC50) entry (in [5]; in [6]; in series [7]; at Melanocortin receptor 5; in [8]; in series [9]) was “Not Active” throughout. The IC50 entry (at Estrogen receptor; in [10] (insect cells)) was “Not Active” in each case. Moreover, the inhibitory constant (Ki) entry (in series [3]; on Cytochrome P450 2C9; in series [6]; in series [7]) was “Not Active” each time.
Consider `O=C1OC2(c3ccc(O)cc3Oc3cc(O)ccc32)c2ccccc21` [FLUORESCEIN], for which the half-inhibitory concentration (IC50) entry (in [1] (sf9); in series [2] (hela); in series [3]; against Melanocortin receptor 3; in series [4]; against Cytochrome P450 2C9) was “Not Active” throughout. Besides, the half-inhibitory concentration (IC50) result (in series [5]; in series [6]; in series [7]; against Melanocortin receptor 5; in [8]; in series [9]) was “Not Active” throughout. In addition, the IC50 entry (on Estrogen receptor; in [10] (insect cells)) was “Not Active” each time. Further, the inhibition constant (Ki) entry (in series [3]; at Cytochrome P450 2C9; in series [6]; in series [7]) was “Not Active” each time.
On to `CC(=O)[C@@]1(O)CC[C@H]2[C@@H]3C[C@H](C)C4=CC(=O)C=C[C@]4(C)[C@@]3(F)[C@@H](O)C[C@@]21C` [FLUOROMETHOLONE], for which the concentration for half-maximal inhibition (IC50) result (in [1] (sf9); in series [2] (hela); in series [3]; against Melanocortin receptor 3; in series [4]; at Cytochrome P450 2C9) was “Not Active” in each case. Also, the IC50 entry (in series [5]; in [6]; in [7]; against Melanocortin receptor 5; in series [8]; in series [9]) was “Not Active” each time. Also, the half-inhibitory concentration (IC50) entry (on Estrogen receptor; in series [10] (insect cells)) was “Not Active” throughout. Also, the inhibition constant Ki entry (in series [3]; on Cytochrome P450 2C9; in [6]; in series [7]) was “Not Active” in each case.

As usually defined, the IC50 is the concentration that gives 50% inhibition. By Ki is commonly meant the equilibrium dissociation constant of an inhibitor or competing ligand from its target.
